From patent publication US20240148821A1, “PHARMACEUTICAL USE OF CYCLIC PEPTIDE COMPOUND” (CHUGAI SEIYAKU KABUSHIKI KAISHA, priority 2021, published 2024) come the findings set out here.

The structures appear in SMILES notation. Numbered stars: 1 amine (or outer) side, 2 acyl side, 3 side chain; on linkers, the order of the positions; unused ones are H or OH. Bridge positions count the residues as written; N and C are the ends. Square brackets hold non-standard residues; d marks the D form. Peptide text beside a SMILES is read from it. * marks the point of attachment. hPhe(3-Cl-4-CF3) = N[C@@H](CCc1ccc(C(F)(F)F)c(Cl)c1)C(=O)O; X52 = CN([C@@H](Cc1ccccc1OC(F)(F)F)C(=O)[*:2])[*:1]; NMePhe(4-Cl) = CN[C@@H](Cc1ccc(Cl)cc1)C(=O)O; X51 = CN([C@@](C)(Cc1ccccc1)C(=O)[*:2])[*:1]; NMePhe(3-Me) = CN[C@@H](Cc1cccc(C)c1)C(=O)O; NMePhe(3-F) = CN[C@@H](Cc1cccc(F)c1)C(=O)O; NMeGly(cPent) = CN[C@H](C(=O)O)C1CCCC1; Phe(3-I) = N[C@@H](Cc1cccc(I)c1)C(=O)O; NMeY = CN[C@@H](Cc1ccc(O)cc1)C(=O)O; NMeCha = CN[C@@H](CC1CCCCC1)C(=O)O; NMeD = CN[C@@H](CC(=O)O)C(=O)O; NMeL = CN[C@@H](CC(C)C)C(=O)O; NPrAla = CCCN[C@@H](C)C(=O)O; NMeV = CN[C@H](C(=O)O)C(C)C; d(β3hA) = C[C@@H](N)CC(=O)O; NMeA = CN[C@@H](C)C(=O)O; Nle = CCCC[C@H](N)C(=O)O; Piperidide = C1CCN(*)CC1; dNMeA = CN[C@H](C)C(=O)O; Ac5c = NC1(C(=O)O)CCCC1; Aze = O=C(O)[C@@H]1CCN1; NBuGly = CCCCNCC(=O)O; NPrGly = CCCNCC(=O)O; Sar = CNCC(=O)O Where only a bound is given, the exact number is not on record here.

The test deals with Human pancreatic cancer cell line AsPC-1 (G12D mutation Kras). Description: AsPC-1 cell growth inhibition (AsPC-1 CGI). Format: cell-based. As to conditions: read-out: AsPC-1 cell growth inhibition, 50% growth inhibitory concentration (IC50 value); 96 hours, CellTiter-Glo, values classified in ranges.
Method: Test compounds were serially dilated with dimethyl sulfoxide, and 200 nL was then dispensed to a U-bottom 96-well plate using Labcyte Echo. […] The cell suspension was dispensed to a. plate containing a test compound at 100 μL per well and incubated at 37° C. in a 5% carbon dioxide gas incubator. 96 hours later, 80 μL of CellTiter-Glo (Promega) was added to each well and fluorescence was measured.
As for `CC[C@H](C)[C@@H]1NC(=O)[C@H](CC(C)C)N(C)C(=O)C[C@@H](C(=O)N(C)C)N(C)C(=O)[C@H](C2CCCC2)N(C)C(=O)C2(CCCC2)NC(=O)[C@H](Cc2cccc(F)c2)N(C)C(=O)[C@H](CCc2ccc(C(F)(F)F)c(Cl)c2)NC(=O)CN(C)C(=O)[C@H](CC2CCCCC2)N(C)C(=O)[C@@H]2CCN2C(=O)[C@H](C)N(C)C1=O` [Compound 95] ([NMeL]I[NMeA][Aze][NMeCha][Sar][hPhe(3-Cl-4-CF3)][NMePhe(3-F)][Ac5c][NMeGly(cPent)][NMeD]-NMe2; lactam N-11), the IC50 was over 500 nM. Then `CC[C@H](C)[C@@H]1NC(=O)[C@H](CC(C)C)N(C)C(=O)C[C@@H](C(=O)N(C)C)N(C)C(=O)[C@H](C2CCCC2)N(C)C(=O)[C@H](C(C)C)NC(=O)[C@H](C)N(C)C(=O)[C@H](CCc2ccc(C(F)(F)F)c(Cl)c2)NC(=O)CN(C)C(=O)[C@H](CC2CCCCC2)N(C)C(=O)[C@@H]2CCN2C(=O)[C@H](C)N(C)C1=O` [Compound 102] ([NMeL]I[NMeA][Aze][NMeCha][Sar][hPhe(3-Cl-4-CF3)][NMeA]V[NMeGly(cPent)][NMeD]-NMe2; lactam N-11), with over 500 nM; and `CC[C@H](C)[C@@H]1NC(=O)[C@H](C)N(C)C(=O)C[C@@H](C)NC(=O)[C@H](C2CCCC2)N(C)C(=O)C2(CCCC2)NC(=O)[C@@H]2CCCN2C(=O)[C@H](CCc2ccc(C(F)(F)F)c(Cl)c2)NC(=O)[C@@H](C)N(C)C(=O)[C@H](C(C)C)N(C)C(=O)CN(C)C(=O)CN(C)C1=O` [Compound 109] (cyclo([Ac5c][NMeGly(cPent)][d(β3hA)][NMeA]I[Sar][Sar][NMeV][dNMeA][hPhe(3-Cl-4-CF3)]P)), with over 500 nM; and `CCCC[C@@H]1NC(=O)[C@H](Cc2cccc(I)c2)NC(=O)CN(C)C(=O)[C@H](Cc2ccc(Cl)cc2)N(C)C(=O)CN(C)C(=O)CN(C)C(=O)[C@H]([C@@H](C)CC)NC(=O)[C@H](CC(C)C)N(C)C(=O)C[C@@H](C(=O)N2CCCCC2)N(C)C(=O)[C@H](CC(C)C)NC(=O)[C@H](Cc2ccccc2OC(F)(F)F)N(C)C1=O` [Compound 111] ([NMeL]I[Sar][Sar][NMePhe(4-Cl)][Sar][Phe(3-I)][Nle][X52]L[NMeD]-Piperidide; lactam N-11), with over 500 nM. Turning to `CCCN1C(=O)C[C@@H](C)NC(=O)[C@H](C(C)C)N(C)C(=O)C2(CCCC2)NC(=O)[C@@H]2CCCN2C(=O)[C@H](CCc2ccc(C(F)(F)F)c(Cl)c2)NC(=O)CN(C)C(=O)[C@H](CC2CCCCC2)N(C)C(=O)CN(C)C(=O)CN(C)C(=O)[C@H]([C@@H](C)CC)NC(=O)[C@@H]1C` [Compound 114] (cyclo([Ac5c][NMeV][d(β3hA)][NPrAla]I[Sar][Sar][NMeCha][Sar][hPhe(3-Cl-4-CF3)]P)), the IC50 is over 500 nM.

With `CCCN1CC(=O)N(C)CC(=O)N(C)[C@@H](CC2CCCCC2)C(=O)N(C)CC(=O)N[C@@H](CCc2ccc(C(F)(F)F)c(Cl)c2)C(=O)N2CCC[C@H]2C(=O)NC2(CCCC2)C(=O)N(C)[C@@H](C(C)C)C(=O)N[C@H](C)CC(=O)N(C)[C@@H](CC(C)C)C(=O)N[C@@H]([C@@H](C)CC)C1=O` [Compound 116] (cyclo([Ac5c][NMeV][d(β3hA)][NMeL]I[NPrGly][Sar][NMeCha][Sar][hPhe(3-Cl-4-CF3)]P)), the IC50 is over 500 nM. With `CC[C@H](C)[C@@H]1NC(=O)[C@H](C)N(C)C(=O)C[C@@H](C)NC(=O)[C@H](C2CCCC2)N(C)C(=O)C2(CCCC2)NC(=O)[C@@H]2CCCN2C(=O)[C@H](CCc2ccc(C(F)(F)F)c(Cl)c2)NC(=O)[C@@H](C)N(C)C(=O)[C@H](Cc2cccc(C)c2)N(C)C(=O)[C@@H]2CCN2C(=O)[C@H](C)N(C)C1=O` [Compound 117] (cyclo([Ac5c][NMeGly(cPent)][d(β3hA)][NMeA]I[NMeA][Aze][NMePhe(3-Me)][dNMeA][hPhe(3-Cl-4-CF3)]P)), the IC50 is over 500 nM. Then `CCCCN1CC(=O)N(C)CC(=O)N(C)[C@@H](CC2CCCCC2)C(=O)N(C)CC(=O)N[C@@H](CCc2ccc(C(F)(F)F)c(Cl)c2)C(=O)N2CCC[C@H]2C(=O)NC2(CCCC2)C(=O)N(C)[C@@H](C(C)C)C(=O)N[C@H](C)CC(=O)N(C)[C@@H](CC(C)C)C(=O)N[C@@H]([C@@H](C)CC)C1=O` [Compound 123] (cyclo([Ac5c][NMeV][d(β3hA)][NMeL]I[NBuGly][Sar][NMeCha][Sar][hPhe(3-Cl-4-CF3)]P)), with over 500 nM; and `CCCC[C@@H]1NC(=O)[C@H](Cc2cccc(I)c2)NC(=O)CN(C)C(=O)[C@H](Cc2ccc(OC)cc2)N(C)C(=O)CN(C)C(=O)CN(C)C(=O)[C@H]([C@@H](C)CC)NC(=O)[C@H](CC(C)C)N(C)C(=O)C[C@@H](C(=O)N2CCCCC2)N(C)C(=O)[C@H](CC(C)C)NC(=O)[C@](C)(Cc2ccccc2)N(C)C1=O` [Compound 125] ([NMeL]I[Sar][Sar][NMeY](Me)[Sar][Phe(3-I)][Nle][X51]L[NMeD]-Piperidide; lactam N-11), with over 500 nM.
